Source: patent US20240252670A1, “ANTIBODY DRUG CONJUGATE, PREPARATION METHOD THEREFOR AND APPLICATION THEREOF” (TSINGHUA UNIVERSITY, priority 2021, published 2024)

Legend:
MC38 tumor = experiment: Anti-tumor activity and survival in MC38 mouse tumor model; type: in vivo; settings: for inhibitory activity against MC38 tumor growth: MC38 mice, i.p., antibody drugs 150 μg per mouse, D18 25 μg per mouse, schedule Table 1
Text: (§1) A. Treatment with ADC HE-S2, single administration of anti-PD-L1 antibody, D18, or anti-PD-L1 THIOMAB, and anti-PD-L1 antibody/D18 combined administration for inhibitory activity against mouse MC38 tumor growth. B. Whole animal survival study. The ordinate of the curve represents the percentage of tumor-bearing mice that remained alive after different days, and the abscissa thereof represents the number of experimental days. C. Treatment with ADC HE-S2, single administration of anti-PD-L1 antibody, D18, or anti-PD-L1 THIOMAB, and anti-PD-L1 antibody/D18 combined administration for inhibitory activity against mouse MC38 tumor growth. Student's t test was used to compare significant differences between the groups, and p<0.001 is represented by ***.
To verify the anti-cancer activity of ADC HE-S2, the inventors first made a mouse model with MC38. After the tumor was loaded, a visible tumor could be observed on the mouse surface for about one week. When the mean tumor tissue volume of the mice reached 100 mm^3, the mice were randomly grouped as follows according to the final type of drug administered: IgG isotype control antibody group (abbreviated as IgG), anti-PD-L1 antibody group (anti-PD-L1), anti-PD-L1 THIOMAB group (Thiomab), D18 group (D18), D18/anti-PD-L1 antibody combination treatment group (anti-PD-L1 & D18), and ADC HE-S2 group (ADC HE-S2), with 7-8 mice per group. The IgG isotype control antibody group, the anti-PD-L1 antibody (i.e., avelumab as described in Example 2) group, and the anti-PD-L1 THIOMAB (i.e., mutant antibody prepared in Example 2) group were administered twice a week via intraperitoneal injection of 150 μg per mouse for each time. The D18 group was administered twice a week via intraperitoneal injection of 25 μg per mouse for each time. In the D18/anti-PD-L1 antibody combination treatment group, the anti-PD-L1 antibody was dosed twice a week, 150 μg per mouse for each time; the D18 was dosed […], 25 μg per mouse for each time; in the ADC HE-S2 group, ADC HE-S2 was dosed once a week via intraperitoneal injection of 150 μg per mouse for each time; the anti-PD-L1 antibody was dosed once a week, staggered from the administration of the ADC, via intraperitoneal injection of 150 μg per mouse for each time.
(§2) Dosage: Antibody drugs, administered 150 μg per mouse for each time, and D18, administered 25 μg per mouse for each time. - means no administration on the day. * Only mice with MC38 tumor model were allowed to be administered until the 24th day, and mice with B16 tumor model were no longer administered after the 21st day.

B16 melanoma = experiment: Anti-tumor activity in B16 melanoma mouse model; type: in vivo; settings: B16 mice, i.p.; antibody drugs 150 μg, D18 25 μg per mouse; dosing to day 21
Text: as §1
B16 melanoma is a tumor with low PD-L1 level and certain drug resistance to PD-1/PD-L1 blocking treatment. As a result, as expected by the inventors, the inhibitory effect of each drug on B16 melanoma was reduced relative to the MC38 tumor.
as §2

[1] = Effect of drug treatment on body weight of healthy mice; type: in vivo, mouse; settings: antibody drugs 150 μg, D18 25 μg per dose
Description: Mice were treated with ADC HE-S2, anti-PD-L1 antibody+D18 in combination, anti-PD-L1 antibody alone, D18 alone, and isotype IgG, and their body weight variations were recorded. The time of administration for each drug is indicated by the arrow. Student's t test was used to compare significance differences between groups, wherein p<0.05 is represented by *. p<0.01 is represented by **, and no significance difference is represented by ns.
Then, the inventors examined the effect of each group of drug treatment on the body weight of mice in a mouse model to determine the toxic and side effects of the drugs used, and the results are shown in FIG. 17. Healthy mice were divided into an ADC group, an anti-PD-L1 antibody+D18 group, an anti-PD-L1 antibody group, a D18 group and an IgG group according to the administration, with 5 mice per group. The mode and dose of administration for each group of mice were the same as those in the mouse tumor model experiment: in the ADC group, ADC HE-S2 was dosed once a week, and the anti-PD-L1 antibody was […], 150 μg for each time; D18 was dosed once a week, 25 μg for each time; the anti-PD-L1 antibody and the IgG isotype antibody were dosed twice a week, 150 μg for each time.

murine PD-L1 = murine PD-L1 (Mus musculus, UniProt Q9EP73); settings: Deng et al., 2016; cited from earlier work
Chain of murine PD-L1 (Q9EP73 19-290): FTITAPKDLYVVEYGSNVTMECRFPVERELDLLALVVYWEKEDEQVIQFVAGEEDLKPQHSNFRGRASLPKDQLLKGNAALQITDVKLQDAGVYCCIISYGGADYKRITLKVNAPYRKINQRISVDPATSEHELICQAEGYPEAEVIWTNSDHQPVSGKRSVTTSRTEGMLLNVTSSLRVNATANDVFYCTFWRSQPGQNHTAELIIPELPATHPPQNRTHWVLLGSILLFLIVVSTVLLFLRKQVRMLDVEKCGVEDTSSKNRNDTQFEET

Molecule: anti-PD-L1 antibody: fully humanized IgG1 type monoclonal anti-PD-L1 antibody drug avelumab [reference compound]
- inhibitory activity against MC38 tumor growth (MC38 tumor): slightly superior to the efficacy of the IgG isotype antibody
- inhibitory effect on B16 melanoma (B16 melanoma): almost comparative to that of the IgG isotype antibody
- body weight change of the mice after administration [1]: almost consistent with that of the blank control IgG group
- cross-reaction with murine PD-L1 (murine PD-L1): cross-react with murine PD-L1

Molecule: CCCCNc1nc(N)nc2ccc(Cc3ccc(CN(C)C)cc3)nc12 [D18, N^4-butyl-6-(4-((dimethylamino)methyl)benzyl)pyridine[3,2-d]pyriproxyfen-2,4-diamine]
- inhibitory activity against MC38 tumor growth (MC38 tumor): slightly superior to the efficacy of the IgG isotype antibody
- survival rate of mice (MC38 tumor; until day 70): 1/8
- inhibitory effect on B16 melanoma (B16 melanoma): almost comparative to that of the IgG isotype antibody
- body weight change of the mice after administration [1]: some decreases in body weight
